Source: the NIST ThermoML archive (doi:10.1007/s10765-005-5566-6)

Experiment: xn = mol fraction of the nth substance listed
Conditions: Gas, Hot wire method

C [methane] + O=C=O
Conditions | thermal conductivity [W/m/K]
300 K, 724 kPa, x1 = 0.2493 | 0.02096
300 K, 727 kPa, x1 = 0.4994 | 0.02533
300 K, 730 kPa, x1 = 0.7496 | 0.03005
300 K, 1240 kPa, x1 = 0.7496 | 0.03027
300 K, 1241 kPa, x1 = 0.4994 | 0.02556
300 K, 1288 kPa, x1 = 0.2493 | 0.02125
300 K, 1748 kPa, x1 = 0.4994 | 0.02584
300 K, 1770 kPa, x1 = 0.7496 | 0.03051
300 K, 1835 kPa, x1 = 0.2493 | 0.02161
300 K, 2212 kPa, x1 = 0.4994 | 0.02613
300 K, 2245 kPa, x1 = 0.7496 | 0.03082
300 K, 2335 kPa, x1 = 0.2493 | 0.02197
300 K, 2700 kPa, x1 = 0.4994 | 0.02637
300 K, 2740 kPa, x1 = 0.7496 | 0.03109
300 K, 2820 kPa, x1 = 0.2493 | 0.02245
300 K, 3118 kPa, x1 = 0.4994 | 0.02681
300 K, 3220 kPa, x1 = 0.7496 | 0.03153
300 K, 3275 kPa, x1 = 0.2493 | 0.02287
300 K, 3550 kPa, x1 = 0.4994 | 0.02726
300 K, 3680 kPa, x1 = 0.7496 | 0.03188
300 K, 3730 kPa, x1 = 0.2493 | 0.02338
300 K, 4160 kPa, x1 = 0.2493 | 0.02399
300 K, 4160 kPa, x1 = 0.7496 | 0.03236
300 K, 4550 kPa, x1 = 0.2493 | 0.02452
300 K, 4560 kPa, x1 = 0.7496 | 0.03271
300 K, 4660 kPa, x1 = 0.4994 | 0.02839
300 K, 4920 kPa, x1 = 0.2493 | 0.0252
300 K, 5000 kPa, x1 = 0.7496 | 0.03324
300 K, 5670 kPa, x1 = 0.4994 | 0.02959
300 K, 6570 kPa, x1 = 0.4994 | 0.03101
325 K, 793 kPa, x1 = 0.2493 | 0.0234
325 K, 797 kPa, x1 = 0.7496 | 0.03345
325 K, 800 kPa, x1 = 0.4994 | 0.02831
325 K, 1350 kPa, x1 = 0.4994 | 0.02846
325 K, 1358 kPa, x1 = 0.7496 | 0.03366
325 K, 1420 kPa, x1 = 0.2493 | 0.02367
325 K, 1896 kPa, x1 = 0.4994 | 0.02871
325 K, 1920 kPa, x1 = 0.7496 | 0.0339
325 K, 2020 kPa, x1 = 0.2493 | 0.02398
325 K, 2434 kPa, x1 = 0.4994 | 0.02901
325 K, 2465 kPa, x1 = 0.7496 | 0.0342
325 K, 2600 kPa, x1 = 0.2493 | 0.02439
325 K, 2970 kPa, x1 = 0.4994 | 0.02933
325 K, 3020 kPa, x1 = 0.7496 | 0.0345
325 K, 3160 kPa, x1 = 0.2493 | 0.02478
325 K, 3440 kPa, x1 = 0.4994 | 0.02963
325 K, 3520 kPa, x1 = 0.7496 | 0.03477
325 K, 3685 kPa, x1 = 0.2493 | 0.02519
325 K, 3920 kPa, x1 = 0.4994 | 0.02999
325 K, 4040 kPa, x1 = 0.7496 | 0.03529
325 K, 4210 kPa, x1 = 0.2493 | 0.02561
325 K, 4555 kPa, x1 = 0.7496 | 0.03559
325 K, 4690 kPa, x1 = 0.2493 | 0.02615
325 K, 5040 kPa, x1 = 0.7496 | 0.03603
325 K, 5170 kPa, x1 = 0.2493 | 0.02675
325 K, 5200 kPa, x1 = 0.4994 | 0.03111
325 K, 5560 kPa, x1 = 0.7496 | 0.03638
325 K, 5625 kPa, x1 = 0.2493 | 0.02733
325 K, 6380 kPa, x1 = 0.4994 | 0.03222
325 K, 7500 kPa, x1 = 0.4994 | 0.03379
350 K, 860 kPa, x1 = 0.2493 | 0.026
350 K, 862 kPa, x1 = 0.7496 | 0.03707
350 K, 865 kPa, x1 = 0.4994 | 0.03135
350 K, 1310 kPa, x1 = 0.2493 | 0.02615
350 K, 1464 kPa, x1 = 0.4994 | 0.03154
350 K, 1605 kPa, x1 = 0.7496 | 0.03738
350 K, 1750 kPa, x1 = 0.2493 | 0.02631
350 K, 2054 kPa, x1 = 0.4994 | 0.03177
350 K, 2180 kPa, x1 = 0.2493 | 0.02656
350 K, 2340 kPa, x1 = 0.7496 | 0.03766
350 K, 2610 kPa, x1 = 0.2493 | 0.02669
350 K, 2660 kPa, x1 = 0.4994 | 0.03206
350 K, 3020 kPa, x1 = 0.2493 | 0.02694
350 K, 3035 kPa, x1 = 0.7496 | 0.03796
350 K, 3190 kPa, x1 = 0.4994 | 0.03224
350 K, 3440 kPa, x1 = 0.2493 | 0.02718
350 K, 3740 kPa, x1 = 0.7496 | 0.03813
350 K, 3760 kPa, x1 = 0.4994 | 0.03258
350 K, 3840 kPa, x1 = 0.2493 | 0.02747
350 K, 4220 kPa, x1 = 0.2493 | 0.02766
350 K, 4324 kPa, x1 = 0.4994 | 0.03282
350 K, 4410 kPa, x1 = 0.7496 | 0.03855
350 K, 4600 kPa, x1 = 0.2493 | 0.02799
350 K, 5140 kPa, x1 = 0.7496 | 0.039
350 K, 5145 kPa, x1 = 0.4994 | 0.03347
350 K, 5860 kPa, x1 = 0.7496 | 0.03958
350 K, 5920 kPa, x1 = 0.4994 | 0.03401
350 K, 6410 kPa, x1 = 0.7496 | 0.03989
350 K, 6670 kPa, x1 = 0.4994 | 0.03477
350 K, 7080 kPa, x1 = 0.7496 | 0.04053
375 K, 919 kPa, x1 = 0.2493 | 0.02872
375 K, 919 kPa, x1 = 0.4994 | 0.03475
375 K, 930 kPa, x1 = 0.7496 | 0.04098
375 K, 1460 kPa, x1 = 0.2493 | 0.02883
375 K, 1528 kPa, x1 = 0.7496 | 0.04104
375 K, 1578 kPa, x1 = 0.4994 | 0.0348
375 K, 1986 kPa, x1 = 0.2493 | 0.02895
375 K, 2135 kPa, x1 = 0.7496 | 0.04117
375 K, 2220 kPa, x1 = 0.4994 | 0.03492
375 K, 2510 kPa, x1 = 0.2493 | 0.02913
375 K, 2740 kPa, x1 = 0.7496 | 0.04129
375 K, 2840 kPa, x1 = 0.4994 | 0.0352
375 K, 3015 kPa, x1 = 0.2493 | 0.02945
375 K, 3310 kPa, x1 = 0.7496 | 0.04145
375 K, 3480 kPa, x1 = 0.4994 | 0.03545
375 K, 3510 kPa, x1 = 0.2493 | 0.0297
375 K, 3915 kPa, x1 = 0.7496 | 0.04181
375 K, 4005 kPa, x1 = 0.2493 | 0.02993
375 K, 4100 kPa, x1 = 0.4994 | 0.03561
375 K, 4490 kPa, x1 = 0.7496 | 0.04204
375 K, 4500 kPa, x1 = 0.2493 | 0.0302
375 K, 4715 kPa, x1 = 0.4994 | 0.03598
375 K, 4975 kPa, x1 = 0.2493 | 0.03051
375 K, 5440 kPa, x1 = 0.2493 | 0.03075
375 K, 5855 kPa, x1 = 0.4994 | 0.03682
375 K, 6910 kPa, x1 = 0.7496 | 0.04355
375 K, 6930 kPa, x1 = 0.4994 | 0.03739
375 K, 8000 kPa, x1 = 0.4994 | 0.03823
375 K, 9330 kPa, x1 = 0.7496 | 0.04538
375 K, 11600 kPa, x1 = 0.7496 | 0.04722
400 K, 983 kPa, x1 = 0.2493 | 0.03152
400 K, 986 kPa, x1 = 0.4994 | 0.03807
400 K, 993 kPa, x1 = 0.7496 | 0.04503
400 K, 1410 kPa, x1 = 0.2493 | 0.0316
400 K, 1690 kPa, x1 = 0.4994 | 0.03812
400 K, 1700 kPa, x1 = 0.7496 | 0.04501
400 K, 1820 kPa, x1 = 0.2493 | 0.03172
400 K, 2230 kPa, x1 = 0.2493 | 0.03183
400 K, 2378 kPa, x1 = 0.4994 | 0.03826
400 K, 2393 kPa, x1 = 0.7496 | 0.04519
400 K, 2635 kPa, x1 = 0.2493 | 0.03187
400 K, 3040 kPa, x1 = 0.2493 | 0.03201
400 K, 3061 kPa, x1 = 0.4994 | 0.03844
400 K, 3115 kPa, x1 = 0.7496 | 0.04526
400 K, 3435 kPa, x1 = 0.2493 | 0.03228
400 K, 3740 kPa, x1 = 0.4994 | 0.03866
400 K, 3770 kPa, x1 = 0.7496 | 0.04535
400 K, 3850 kPa, x1 = 0.2493 | 0.03241
400 K, 4240 kPa, x1 = 0.2493 | 0.03258
400 K, 4390 kPa, x1 = 0.4994 | 0.03887
400 K, 4460 kPa, x1 = 0.7496 | 0.04578
400 K, 4615 kPa, x1 = 0.2493 | 0.03271
400 K, 5060 kPa, x1 = 0.4994 | 0.03918
400 K, 5140 kPa, x1 = 0.7496 | 0.04598
400 K, 5667 kPa, x1 = 0.4994 | 0.03961
400 K, 6180 kPa, x1 = 0.4994 | 0.0398
400 K, 6670 kPa, x1 = 0.7496 | 0.04688
400 K, 6710 kPa, x1 = 0.4994 | 0.04014
400 K, 8110 kPa, x1 = 0.7496 | 0.04756
400 K, 9545 kPa, x1 = 0.7496 | 0.04861
425 K, 1048 kPa, x1 = 0.2493 | 0.03418
425 K, 1050 kPa, x1 = 0.4994 | 0.04164
425 K, 1050 kPa, x1 = 0.7496 | 0.04889
425 K, 1530 kPa, x1 = 0.2493 | 0.03411
425 K, 1799 kPa, x1 = 0.4994 | 0.04146
425 K, 1810 kPa, x1 = 0.7496 | 0.04908
425 K, 1938 kPa, x1 = 0.2493 | 0.03436
425 K, 2390 kPa, x1 = 0.2493 | 0.03434
425 K, 2554 kPa, x1 = 0.4994 | 0.04156
425 K, 2558 kPa, x1 = 0.7496 | 0.04898
425 K, 2810 kPa, x1 = 0.2493 | 0.03448
425 K, 3260 kPa, x1 = 0.2493 | 0.03452
425 K, 3260 kPa, x1 = 0.4994 | 0.04176
425 K, 3300 kPa, x1 = 0.7496 | 0.04919
425 K, 3690 kPa, x1 = 0.2493 | 0.03472
425 K, 4000 kPa, x1 = 0.4994 | 0.04192
425 K, 4050 kPa, x1 = 0.7496 | 0.04919
425 K, 4120 kPa, x1 = 0.2493 | 0.0349
425 K, 4540 kPa, x1 = 0.2493 | 0.03506
425 K, 4730 kPa, x1 = 0.4994 | 0.04207
425 K, 4800 kPa, x1 = 0.7496 | 0.0498
425 K, 4960 kPa, x1 = 0.2493 | 0.0353
425 K, 5460 kPa, x1 = 0.4994 | 0.04245
425 K, 5520 kPa, x1 = 0.7496 | 0.05001
425 K, 6410 kPa, x1 = 0.4994 | 0.04284
425 K, 7380 kPa, x1 = 0.4994 | 0.04335
425 K, 7670 kPa, x1 = 0.7496 | 0.05089
425 K, 8310 kPa, x1 = 0.4994 | 0.04385
425 K, 9820 kPa, x1 = 0.7496 | 0.05188
425 K, 11970 kPa, x1 = 0.7496 | 0.05348
